Experiments:
HUVEC cells = assay: VEGF ligand-dependent cell proliferation; assay type: cell-based; details: Homo sapiens, VEGF 165 50 ng/ml, 72 hours, MTS
Protocol: VEGF dependent cell proliferation:
HUVEC cells were plated into 96-well plates at 6,000 per well and incubated with serum-free medium for 2 hours. Compounds and VEGF 165 (50 ng/ml) were added and incubated for 72 hours in serum-free medium. The effects on proliferation were determined by addition of MTS reagent (Promega) according to the instruction, incubation for 2 hours at 37° C. in CO2 incubator, and record the absorbance at 490 nm using an ELISA plate reader.

c-Kit = target: T1, c-Kit (Homo sapiens, UniProt P10721); assay: c-KIT kinase ELISA bioassay; assay type: biochemical; details: ELISA kinase assay, 20 μM ATP
T1 construct: purchased Cell Signaling
Protocol: This assay is used to measure in vitro kinase activity of c-KIT in an ELISA assay.
• 1. Streptavidin coated, 96-well, white plate • 2. Phospho-Tyrosine Monoclonal Antibody (P-Tyr-100) (Cell Signaling) • 3. HRP-labeled anti-mouse IgG (Upstate) • 4. HTScan™ Tyrosine Kinase Buffer (4×) • 5. DTT (1000×. 1.25 M) • 6. ATP (10 mM) • 7. KDR (Tyr996) Biotinylated Peptide Substrate (Cell Signaling) • 8. c-KIT Kinase (recombinant, human) (Cell Signaling) • 9. Wash Buffer: 1× PBS, 0.05% Tween-20 (PBS/T) • 10. Bovine Serum Albumin (BSA) • 11. Stop Buffer: 50 mM EDTA pH 8 • 12. Enhanced chemiluminescence (ECL) (Amersham) Procedure for performing the assay in 96-well plate: • 1. Add 10 μl 10 mM ATP to 1.25 ml 6 μM substrate peptide. Dilute the mixture with dH20 to 2.5 ml to make 2× ATP/substrate cocktail ([ATP]=40 μM, [substrate]=3 μm). • 2. Immediately transfer enzyme from −80° C. to ice. Allow enzyme to thaw on ice. • 3. Microcentrifuge briefly at 4° C. to bring liquid to the bottom of the vial. Return immediately to ice. • 4. Add 10 μl of DTT (1.25 M) to 2.5 ml of 4× HTScan™ Tyrosine Kinase Buffer (240 mM HEPES pH 7.5, 20 mM MgCl2, 20 mM MnCl2, 12 μM Na3VO4) to make DTT/Kinase buffer. • 5. Transfer 1.25 ml of DTT/Kinase buffer to enzyme tube to make 4× reaction cocktail ([enzyme]=4 ng/μL in 4× reaction cocktail). • 6. Incubate 12.5 μl of the 4× reaction cocktail with 12.5 μl/well of prediluted compound of interest (usually around 10 μM) for 5 minutes at room temperature. • 7. Add 25 μl of 2× ATP/substrate cocktail to 25 μl/well preincubated reaction cocktail/compound. Final Assay Conditions for a 50 μl Reaction: • 60 mM HEPES pH 7.5 • 5 mM MgCl2 • 5 mM MnCl2 • 3 μM Na3VO4 • 1.25 mM DTT • 20 μM ATP • 1.5 μM peptide • 100 ng c-KIT Kinase • 8. Incubate reaction plate at room temperature for 30 minutes. • 9. Add 50 μl/well Stop Buffer (50 mM EDTA, pH 8) to stop the reaction. • 10. Transfer 25 μl of each reaction and 75 μl dH2O/well to a 96-well streptavidincoated plate and incubate at room temperature for 60 minutes. • 11. Wash three times with 200 μl/well PBS/T • 12. Dilute primary antibody, Phospho-Tyrosine Monoclonal Antibody (P-Tyr-100), 1:1000 in PBS/T with 1% BSA. Add 100 μl/well of primary antibody. • 13. Incubate at room temperature for 60 minutes. • 14. Wash three times with 200 μl/well PBS/T • 15. Dilute HRP labeled anti-mouse IgG 1:500 in PBS/T with 1% BSA. Add 100 μl/well diluted antibody. • 16. Incubate at room temperature for 30 minutes. • 17. Wash five times with 200 μl/well PBS/T. • 18. Add 100 μl/well ECL Solution. • 19. Detect luminescence with appropriate Plate Reader. Flt3 Bioassay

HDAC3 = target: T2, HDAC3 (Homo sapiens, UniProt O15379); assay: GDF11 reporter assay in HeLa cells; assay type: cell-based; details: relative to CS055 at 3 μM
T2 construct: endogenous in cells; host or cells: HeLa
Protocol: (§1) HDAC subtype selectivity inhibition assay of tested compounds was carried out by several reporter gene assays experiments. Briefly, HeLa cells were seeded in 96-well plates the day before transfection to give a confluence of 50-80%. Cells were transfected with one of reporter gene plasmid containing a promoter sequence or response element upstream of a luciferase gene construct using FuGene6 transfection reagent according to the manufacturer's instruction (Roche). The promoters or response elements including p21-promoter, gdf11-promoter, MEF-binding element (MEF2), Nur77-promoter were fused upstream to the luciferase gene reporter construct. For normalizing the transfection efficiency, a GFP expression plasmid was cotransfected. Cells were allowed to express protein for 24 hours followed by addition of individual compounds or the vehicle (DMSO). 24 hours later the cells were harvested, and the luciferase assay and GFP assay were performed using corresponding assay kits according to the manufacturer's instructions (Promega).

HDAC4/5 = assay: MEF2 reporter assay in HeLa cells; assay type: cell-based, human; details: relative to CS055 at 3 μM
Protocol: as §1

Hut-78 = assay: Tumor cell proliferation (MTS), Hut-78; assay type: cell-based; details: Homo sapiens, HuT78, Hut-78, 72 hours
Protocol: (§2) Measurement of in vivo cell proliferation:
(§3) Tumor cells were trypsinized and plated into 96-well plates at 3,000 per well and incubated in complete medium with 10% FBS for 24 hours. Compounds were added over a final concentration range of 100 μmol/L to 100 nmol/L in 0.1% DMSO and incubated for 72 hours in complete medium. The effects on proliferation were determined by addition of MTS reagent (Promega) according to the instruction, incubation for 2 hours at 37° C. in CO2 incubator, and record the absorbance at 490 nm using an ELISA plate reader.

Bel-7402 = assay: Tumor cell proliferation (MTS), Bel-7402; assay type: cell-based; details: Homo sapiens, Bel-7402, 72 hours
Protocol: as §2, §3

MDA-MB-231 = assay: Tumor cell proliferation (MTS), MDA-MB-231; assay type: cell-based; details: Homo sapiens, MDA-MB-231, 72 hours
Protocol: as §2, §3

T2 sequence (O15379 whole entry): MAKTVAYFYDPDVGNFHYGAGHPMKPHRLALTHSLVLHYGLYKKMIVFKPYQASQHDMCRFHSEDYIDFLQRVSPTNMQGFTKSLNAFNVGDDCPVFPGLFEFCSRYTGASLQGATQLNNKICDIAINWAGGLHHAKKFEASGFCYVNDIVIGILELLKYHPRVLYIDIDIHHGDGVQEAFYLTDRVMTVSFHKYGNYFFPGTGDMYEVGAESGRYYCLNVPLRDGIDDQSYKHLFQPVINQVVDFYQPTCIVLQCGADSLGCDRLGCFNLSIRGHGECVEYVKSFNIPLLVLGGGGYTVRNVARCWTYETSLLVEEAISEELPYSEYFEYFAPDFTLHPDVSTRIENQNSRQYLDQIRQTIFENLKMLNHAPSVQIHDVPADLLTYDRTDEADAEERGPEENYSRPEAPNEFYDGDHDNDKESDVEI
T2 sequence (Q9Y618 whole entry partner): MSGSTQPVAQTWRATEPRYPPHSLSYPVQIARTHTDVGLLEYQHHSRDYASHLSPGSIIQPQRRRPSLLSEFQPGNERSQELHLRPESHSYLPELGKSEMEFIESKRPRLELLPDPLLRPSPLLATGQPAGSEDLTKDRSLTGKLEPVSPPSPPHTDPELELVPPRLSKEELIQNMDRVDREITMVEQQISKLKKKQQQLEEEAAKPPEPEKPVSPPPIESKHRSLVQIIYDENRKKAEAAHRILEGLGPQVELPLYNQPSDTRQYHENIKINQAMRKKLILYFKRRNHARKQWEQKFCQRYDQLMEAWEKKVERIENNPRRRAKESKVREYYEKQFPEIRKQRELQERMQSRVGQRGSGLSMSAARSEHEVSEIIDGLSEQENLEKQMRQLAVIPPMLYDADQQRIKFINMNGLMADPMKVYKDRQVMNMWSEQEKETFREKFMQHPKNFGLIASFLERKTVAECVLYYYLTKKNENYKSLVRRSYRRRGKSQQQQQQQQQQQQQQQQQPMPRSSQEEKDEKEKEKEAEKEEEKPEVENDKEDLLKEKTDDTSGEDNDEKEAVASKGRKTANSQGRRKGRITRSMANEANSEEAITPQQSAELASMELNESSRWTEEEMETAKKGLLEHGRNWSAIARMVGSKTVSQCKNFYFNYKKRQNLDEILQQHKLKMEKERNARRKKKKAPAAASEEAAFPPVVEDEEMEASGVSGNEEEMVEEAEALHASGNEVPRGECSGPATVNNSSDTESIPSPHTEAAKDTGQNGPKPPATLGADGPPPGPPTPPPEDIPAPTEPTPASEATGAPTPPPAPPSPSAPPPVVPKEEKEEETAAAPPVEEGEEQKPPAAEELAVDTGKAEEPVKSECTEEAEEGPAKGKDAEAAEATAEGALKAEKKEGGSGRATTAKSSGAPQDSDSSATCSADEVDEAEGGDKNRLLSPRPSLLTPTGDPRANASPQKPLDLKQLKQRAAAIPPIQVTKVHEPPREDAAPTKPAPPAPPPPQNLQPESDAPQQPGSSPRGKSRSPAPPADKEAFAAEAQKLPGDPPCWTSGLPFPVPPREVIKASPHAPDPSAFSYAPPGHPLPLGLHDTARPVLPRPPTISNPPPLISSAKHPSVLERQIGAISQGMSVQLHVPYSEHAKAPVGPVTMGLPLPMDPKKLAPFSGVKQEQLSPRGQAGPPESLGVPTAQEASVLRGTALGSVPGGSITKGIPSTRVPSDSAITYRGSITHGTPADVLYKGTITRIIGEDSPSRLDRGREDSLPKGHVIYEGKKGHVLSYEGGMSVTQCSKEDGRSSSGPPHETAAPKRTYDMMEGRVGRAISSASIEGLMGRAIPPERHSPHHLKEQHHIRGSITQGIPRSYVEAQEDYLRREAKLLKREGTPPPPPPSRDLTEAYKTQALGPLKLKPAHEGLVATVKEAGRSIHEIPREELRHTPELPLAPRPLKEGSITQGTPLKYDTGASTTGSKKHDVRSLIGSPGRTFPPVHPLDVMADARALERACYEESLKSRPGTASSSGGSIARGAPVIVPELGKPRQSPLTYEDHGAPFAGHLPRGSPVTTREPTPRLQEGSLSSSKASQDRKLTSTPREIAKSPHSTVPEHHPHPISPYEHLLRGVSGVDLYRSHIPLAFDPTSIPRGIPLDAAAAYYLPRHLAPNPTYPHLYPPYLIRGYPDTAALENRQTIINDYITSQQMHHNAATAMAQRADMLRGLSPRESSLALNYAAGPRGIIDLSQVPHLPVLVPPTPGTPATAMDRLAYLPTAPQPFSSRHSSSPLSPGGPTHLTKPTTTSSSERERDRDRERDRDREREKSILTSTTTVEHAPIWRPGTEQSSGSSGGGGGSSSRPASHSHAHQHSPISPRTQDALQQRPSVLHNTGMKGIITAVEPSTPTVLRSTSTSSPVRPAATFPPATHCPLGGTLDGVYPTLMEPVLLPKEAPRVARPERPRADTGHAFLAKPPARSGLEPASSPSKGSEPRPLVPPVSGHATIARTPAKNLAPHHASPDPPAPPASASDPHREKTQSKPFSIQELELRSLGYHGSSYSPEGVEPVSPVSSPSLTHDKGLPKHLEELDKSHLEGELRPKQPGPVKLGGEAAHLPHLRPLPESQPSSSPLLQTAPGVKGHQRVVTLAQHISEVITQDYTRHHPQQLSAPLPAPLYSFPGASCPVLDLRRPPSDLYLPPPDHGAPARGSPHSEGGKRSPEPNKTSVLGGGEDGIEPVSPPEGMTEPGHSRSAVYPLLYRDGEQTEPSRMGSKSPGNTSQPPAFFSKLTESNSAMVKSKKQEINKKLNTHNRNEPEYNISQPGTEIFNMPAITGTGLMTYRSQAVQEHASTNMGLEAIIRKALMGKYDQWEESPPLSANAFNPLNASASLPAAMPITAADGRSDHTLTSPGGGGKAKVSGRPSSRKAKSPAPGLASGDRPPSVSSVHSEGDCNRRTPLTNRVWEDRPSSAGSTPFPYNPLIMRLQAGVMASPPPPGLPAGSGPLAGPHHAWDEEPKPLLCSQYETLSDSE
T1 sequence (P10721 26-976): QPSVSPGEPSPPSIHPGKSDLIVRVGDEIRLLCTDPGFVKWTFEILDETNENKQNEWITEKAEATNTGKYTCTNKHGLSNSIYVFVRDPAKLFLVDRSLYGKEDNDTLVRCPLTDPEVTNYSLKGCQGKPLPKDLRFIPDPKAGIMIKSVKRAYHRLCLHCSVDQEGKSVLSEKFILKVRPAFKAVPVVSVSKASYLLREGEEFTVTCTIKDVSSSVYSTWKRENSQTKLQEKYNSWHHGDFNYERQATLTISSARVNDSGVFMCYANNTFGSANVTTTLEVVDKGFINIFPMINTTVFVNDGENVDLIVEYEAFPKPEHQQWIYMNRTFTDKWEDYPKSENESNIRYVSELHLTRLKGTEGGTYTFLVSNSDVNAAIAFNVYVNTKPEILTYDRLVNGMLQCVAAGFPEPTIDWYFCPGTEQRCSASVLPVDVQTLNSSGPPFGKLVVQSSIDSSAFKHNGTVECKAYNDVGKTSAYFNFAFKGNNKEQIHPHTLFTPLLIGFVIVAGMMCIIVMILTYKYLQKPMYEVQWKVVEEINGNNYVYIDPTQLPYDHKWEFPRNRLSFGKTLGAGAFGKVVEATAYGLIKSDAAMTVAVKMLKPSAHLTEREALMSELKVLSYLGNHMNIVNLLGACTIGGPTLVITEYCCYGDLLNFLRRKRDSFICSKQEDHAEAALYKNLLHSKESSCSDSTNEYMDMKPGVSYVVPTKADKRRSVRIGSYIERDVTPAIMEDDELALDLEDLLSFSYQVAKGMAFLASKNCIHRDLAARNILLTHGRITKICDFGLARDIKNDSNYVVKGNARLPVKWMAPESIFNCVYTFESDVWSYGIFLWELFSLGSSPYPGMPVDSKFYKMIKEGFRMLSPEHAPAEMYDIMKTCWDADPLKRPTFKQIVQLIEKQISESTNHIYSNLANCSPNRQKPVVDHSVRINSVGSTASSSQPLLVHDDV

Cc1[nH]c(/C=C2\C(=O)Nc3ccc(F)cc32)c(C)c1C(=O)NCCCCNc1ccc(C(=O)Nc2ccc(F)cc2N)cn1 [Example 19, (Z)-N-(2-amino-4-fluorophenyl)-6-(4-(2-((5-fluoro-2-oxoindolin-3-ylidene)-methyl)-3,5-dimethyl-1H-pyrrole-4-carboxamido)butylamino)nicotinamide]
GI50 (HUVEC cells): 81 nM
IC50 (c-Kit): 65 nM
HDAC3 (GDF11 reporter assay) % Max Resp of CS055 at 3 μM (HDAC3): 2.0%
HDAC4/5 (MEF2 reporter assay) % Max Resp of CS055 at 3 μM (HDAC4/5): 1.9%
GI50 (Hut-78): > 60 µM
GI50 (Bel-7402): > 60 µM
GI50 (MDA-MB-231): > 60 µM

Cc1[nH]c(/C=N/N=C2\C(=O)Nc3ccc(F)cc32)c(C)c1C(=O)NCCCCNc1ccc(C(=O)Nc2ccc(F)cc2N)cn1 [Example 20, N-(2-amino-4-fluorophenyl)-6-(4-(2-(((5-fluoro-2-oxoindolin-3-ylidene)-hydrazono)methyl)-3,5-dimethyl-1H-pyrrole-4-carboxamido)butylamino)nicotinamide]
GI50 (HUVEC cells): 330 nM
IC50 (c-Kit): > 1000 nM
HDAC3 (GDF11 reporter assay) % Max Resp of CS055 at 3 μM (HDAC3): 4.1%
HDAC4/5 (MEF2 reporter assay) % Max Resp of CS055 at 3 μM (HDAC4/5): 16.3%
GI50 (Hut-78): > 60 µM
GI50 (Bel-7402): > 60 µM
GI50 (MDA-MB-231): > 60 µM
